Reference: US8791048B2, “Herbicidal compositions comprising 4-amino-3-chloro-5-fluoro-6-(4-chloro-2-fluoro-3-methoxyphenyl) pyridine-2-carboxylic acid or a derivative thereof and clomazone” (Dow Agrosciences LLC, priority 2012, dated 2014)

Legend:
Type in all cases: in vivo
[1] = system: ECHCO Echinochloa colona (L.) Link; junglerice; test: Postemergence foliar-applied greenhouse trial, weed control in direct-seeded rice
Text: (§1) Results in Examples I and II are greenhouse trial results.
(§2) Seeds or nutlets of the desired test plant species were planted in a soil matrix prepared by mixing a loam or sandy loam soil (e.g., 28.6 percent silt, 18.8 percent clay, and 52.6 percent sand, with a pH of about 5.8 and an organic matter content of about 1.8 percent) and calcareous grit in an 80 to 20 ratio. The soil matrix was contained in plastic pots with a volume of 1 quart and a surface area of 83.6 square centimeters (cm^2). When required to ensure good germination and healthy plants, a fungicide treatment and/or other chemical or physical treatment was applied. The plants were grown for 8-22 days in a greenhouse with an approximate 14 h photoperiod which was maintained at about 29° C. during the day and 26° C. during the night. Nutrients (Peters Excel® 15-5-15 5-Ca 2-Mg and iron chelate) were applied in the irrigation solution as needed and water was added on a regular basis. Supplemental lighting was provided with overhead metal halide 1000-Watt lamps as necessary. The plants were employed for testing when they reached the first through fourth true leaf stage.
(§3) Treatments consisted of the acid or esters of 4-amino-3-chloro-5-fluoro-6-(4-chloro-2-fluoro-3-methoxy-phenyl)pyridine-2-carboxylic acid (Compound A), each formulated as an SC (suspension concentrate), and various herbicidal components alone and in combination. Forms of compound A were applied on an acid equivalent basis.
(§4) Other herbicidal components were applied on an active ingredient basis and consisted of clomazone formulated as Command® 3ME. Treatment requirements were calculated based upon the rates being tested, the concentration of active ingredient or acid equivalent in the formulation, and a 12 mL application volume at a rate of 187 L/ha.
(§5) For treatments comprised of formulated compounds, measured amounts of compounds were placed individually in 25 mL glass vials and diluted in a volume of 1.25% (v/v) Agri-Dex® crop oil concentrated to obtain 12× stock solutions. […] Application solutions were prepared by adding an appropriate amount of each stock solution (e.g., 1 mL) and diluted to the appropriate final concentrations with the addition of 10 mL of an aqueous mixture of 1.25% (v/v) crop oil concentrate so that the final spray solutions contained 1.25+/−0.05% (v/v) crop oil concentrate.
(§6) All stock solutions and applications solutions were visually inspected for compound compatibility prior to application. Spray solutions were applied to the plant material with an overhead Mandel track sprayer equipped with a 8002E nozzles calibrated to deliver 187 L/ha over an application area of 0.503 m^2 at a spray height of 18 to 20 inches (46 to 50 cm) above average plant canopy height. Control plants were sprayed in the same manner with the solvent blank.
(§7) The treated plants and control plants were placed in a greenhouse as described above and watered by sub-irrigation to prevent wash-off of the test compounds. After approximately 3 weeks, the condition of the test plants as compared with that of the untreated plants was determined visually and scored on a scale of 0 to 100 percent where 0 corresponds to no injury or growth inhibition and 100 corresponds to complete kill.
(§8) Colby's equation was used to determine the herbicidal effects expected from the mixtures (Colby, S. R. 1967. Calculation of the synergistic and antagonistic response of herbicide combinations. Weeds 15:20-22.).
(§9) The following equation was used to calculate the expected activity of mixtures containing two active ingredients, A and B: Expected=A+B−(A×B/100)
(§10) A=observed efficacy of active ingredient A at the same concentration as used in the mixture.
(§11) B=observed efficacy of active ingredient B at the same concentration as used in the mixture.

[2] = system: LEFCH Leptochloa chinensis (L.) Nees; sprangletop, Chinese; test: as above
Text: as §1, §2, §3, §4, §5, §6, §7, §8, §9, §10, §11

[3] = system: DIGSA Digitaria sanguinalis (L.) Scop.; crabgrass, large; test: as above
Text: as §1, §2, §3, §4, §5, §6, §7, §8, §9, §10, §11

[4] = system: IPOHE Ipomoea hederacea Jacq.; morningglory, ivyleaf; test: as above
Text: as §1, §2, §3, §4, §5, §6, §7, §8, §9, §10, §11

[5] = system: ECHCG Echinochloa crus-galli (L.) Beauv.; barnyardgrass; test: as above
Text: as §1, §2, §3, §4, §5, §6, §7, §8, §9, §10, §11

[6] = system: CYPRO Cyperus rotundus L. nutsedge, purple; test: In-water applied greenhouse trial, weed control in transplanted paddy rice
Method: as §1
(§12) Weed seeds or nutlets of the desired test plant species were planted in puddled soil (mud) prepared by mixing a shredded, non-sterilized mineral soil (50.5 percent silt, 25.5 percent clay, and 24 percent sand, with a pH of about 7.6 and an organic matter content of about 2.9 percent) and water at a 1:1 volumetric ratio. The prepared mud was dispensed in 365 mL aliquots into 16-ounce (oz.) non-perforated plastic pots with a surface area of 86.59 square centimeters (cm^2) leaving a headspace of 3 centimeters (cm) in each pot. Rice seeds were planted in Sun Gro MetroMix® 306 planting mixture, which typically has a pH of 6.0 to 6.8 and an organic matter content of about 30 percent, in plastic plug trays. Seedlings at the second or third leaf stage of growth were transplanted into 860 mL of mud contained in 32-oz. non-perforated plastic pots with a surface area of 86.59 cm^2 4 days prior to herbicide application. The paddy was created by filling the headspace of the pots with 2.5 to 3 cm of water. When required to ensure good germination and healthy plants, a fungicide treatment and/or other chemical or physical treatment was applied. The plants were grown for 4-22 days in a greenhouse with an approximate 14 h photoperiod which was maintained at about 29° C. during the day and about 26° C. during the night. Nutrients were added as Osmocote® (17:6:10, N:P:K+minor nutrients) at 2 g per 16-oz. pot and 4 g per 32-oz. pot. Water was added on a regular basis to maintain the paddy flood, and supplemental lighting was provided with overhead metal halide 1000-Watt lamps as necessary. The plants were employed for testing when they reached the first through fourth true leaf stage.
as §3, with “(compound A)” for “(Compound A),”, “concentrate)” for “concentrate),”
(§13) Other herbicidal components were applied on an active ingredient basis and consisted of clomazone formulated as Command® 3ME.
(§14) Treatment requirements for each compound or herbicidal component were calculated based upon the rates being tested, the concentration of active ingredient or acid equivalent in the formulation, an application volume of 2 mL per component per pot, and an application area of 86.59 cm^2 per pot.
(§15) For formulated compounds, a measured amount was placed in an individual 100 or 200 mL glass vial and was dissolved in a volume of 1.25% (v/v) Agri-Dex® crop oil concentrate to obtain application solutions.
(§16) Applications were made by injecting appropriate amounts of the application solutions with a pipetter, individually and sequentially, into the aqueous layer of the paddy. Control plants were treated in the same manner with the solvent blank. Applications were made so that all treated plant material received the same concentrations of acetone and crop oil concentrate.
as §7, with “water was added as needed” for “watered by sub-irrigation”, “maintain a paddy flood.” for “prevent wash-off of the test compounds.”, “weeks” for “weeks,”
as §8, §9
(§17) A=observed efficacy of active ingredient A at the same concentration as used in the mixture. […]

[7] = system: CYPDI Cyperus difformis L. sedge, smallflower umbrella; test: as above
Method: as §1, §12
as §3, with “(compound A)” for “(Compound A),”, “concentrate)” for “concentrate),”
as §13, §14, §15, §16
as §7, with “water was added as needed” for “watered by sub-irrigation”, “maintain a paddy flood.” for “prevent wash-off of the test compounds.”, “weeks” for “weeks,”
as §8, §9, §17

[8] = system: SCPMA Bolboschoenus maritimus (L.) Palla clubrush, sea; test: as above
Method: as §1, §12
as §3, with “(compound A)” for “(Compound A),”, “concentrate)” for “concentrate),”
as §13, §14, §15, §16
as §7, with “water was added as needed” for “watered by sub-irrigation”, “maintain a paddy flood.” for “prevent wash-off of the test compounds.”, “weeks” for “weeks,”
as §8, §9, §17

[9] = Compound A Benzyl Ester 0 gae/ha, Clomazone 56 gai/ha
[10] = Compound A Benzyl Ester 0 gae/ha, Clomazone 112 gai/ha
[11] = Compound A Benzyl Ester 0 gae/ha, Clomazone 224 gai/ha
[12] = Compound A Acid 0 gae/ha, Clomazone 112 gai/ha
[13] = Compound A Acid 0 gae/ha, Clomazone 224 gai/ha
[14] = Compound A Acid 0 gae/ha, Clomazone 448 gai/ha
[15] = Compound A Acid 17.5 gae/ha, Clomazone 0 gai/ha
[16] = Compound A Acid 4.38 gae/ha, Clomazone 0 gai/ha
[17] = Compound A Acid 8.75 gae/ha, Clomazone 0 gai/ha
[18] = Compound A Acid 16 gae/ha, Clomazone 0 gai/ha
[19] = Compound A Benzyl Ester 4.38 gae/ha, Clomazone 0 gai/ha
[20] = Compound A Benzyl Ester 17.5 gae/ha, Clomazone 0 gai/ha
[21] = Compound A Benzyl Ester 8 gae/ha, Clomazone 0 gai/ha
[22] = Compound A Benzyl Ester 16 gae/ha, Clomazone 0 gai/ha
[23] = Compound A Benzyl Ester 32 gae/ha, Clomazone 0 gai/ha

## CC1(C)CON(Cc2ccccc2Cl)C1=O [Clomazone, 2-[(2-chlorophenyl)methyl]-4,4-dimethyl-3-isoxazolidinone]
[1]; [9]
  Visual Weed Control (%) - 19 DAA Obs: 10%
[1]; [10]
  Visual Weed Control (%) - 19 DAA Obs: 10%
[1]; [11]
  Visual Weed Control (%) - 19 DAA Obs: 10%
[2]; Table 1, Compound A Acid 0 gae/ha, Clomazone 56 gai/ha
  Visual Weed Control (%) - 19 DAA Obs: 0%
[2]; Table 1, Compound A Acid 0 gae/ha, Clomazone 112 gai/ha
  Visual Weed Control (%) - 19 DAA Obs: 0%
[2]; Table 1, Compound A Acid 0 gae/ha, Clomazone 224 gai/ha
  Visual Weed Control (%) - 19 DAA Obs: 15%
[2]; Table 2, Compound A Benzyl Ester 0 gae/ha, Clomazone 56 gai/ha
  Visual Weed Control (%) - 19 DAA Obs: 0%
[2]; Table 2, Compound A Benzyl Ester 0 gae/ha, Clomazone 112 gai/ha
  Visual Weed Control (%) - 19 DAA Obs: 0%
[2]; Table 2, Compound A Benzyl Ester 0 gae/ha, Clomazone 224 gai/ha
  Visual Weed Control (%) - 19 DAA Obs: 15%
[3]; Compound A Acid 0 gae/ha, Clomazone 56 gai/ha
  Visual Weed Control (%) - 19 DAA Obs: 0%
[3]; [12]
  Visual Weed Control (%) - 19 DAA Obs: 0%
[3]; [13]
  Visual Weed Control (%) - 19 DAA Obs: 0%
[4]; [12]
  Visual Weed Control (%) - 19 DAA Obs: 20%
[4]; [13]
  Visual Weed Control (%) - 19 DAA Obs: 20%
[5]; [9]
  Visual Weed Control (%) - 19 DAA Obs: 10%
[5]; [10]
  Visual Weed Control (%) - 19 DAA Obs: 10%
[5]; [11]
  Visual Weed Control (%) - 19 DAA Obs: 10%
[6]; [12]
  Visual Weed Control (%) - 21 DAA Obs: 0%
[6]; Compound A Benzyl Ester 0 gae/ha, Clomazone 448 gai/ha
  Visual Weed Control (%) - 21 DAA Obs: 0%
[7]; [13]
  Visual Weed Control (%) - 21 DAA Obs: 20%
[7]; [14]
  Visual Weed Control (%) - 21 DAA Obs: 40%
[8]; [14]
  Visual Weed Control (%) - 22 DAA Obs: 25%
[8]; [10]
  Visual Weed Control (%) - 21 DAA Obs: 0%
[8]; Compound A Benzyl Ester 0 gae/ha, Clomazone 670 gai/ha
  Visual Weed Control (%) - 19 DAA Obs: 0%

## COc1c(Cl)ccc(-c2nc(C(=O)O)c(Cl)c(N)c2F)c1F [Compound A Acid, 4-amino-3-chloro-6-(4-chloro-2-fluoro-3-methoxyphenyl)-5-fluoropyridine-2-carboxylic acid]
[2]; [15]
  Visual Weed Control (%) - 19 DAA Obs: 55%
[3]; [16]
  Visual Weed Control (%) - 19 DAA Obs: 30%
[4]; [16]
  Visual Weed Control (%) - 19 DAA Obs: 0%
[4]; [17]
  Visual Weed Control (%) - 19 DAA Obs: 10%
[6]; [17]
  Visual Weed Control (%) - 21 DAA Obs: 0%
[6]; [15]
  Visual Weed Control (%) - 21 DAA Obs: 30%
[6]; Compound A Acid 35 gae/ha, Clomazone 0 gai/ha
  Visual Weed Control (%) - 21 DAA Obs: 85%
[7]; [18]
  Visual Weed Control (%) - 21 DAA Obs: 30%
[8]; [18]
  Visual Weed Control (%) - 22 DAA Obs: 0%
[8]; Compound A Acid 32 gae/ha, Clomazone 0 gai/ha
  Visual Weed Control (%) - 22 DAA Obs: 0%
[8]; Compound A Acid 64 gae/ha, Clomazone 0 gai/ha
  Visual Weed Control (%) - 22 DAA Obs: 30%

## COc1c(Cl)ccc(-c2nc(C(=O)OCc3ccccc3)c(Cl)c(N)c2F)c1F [Compound A Benzyl Ester]
[1]; [19]
  Visual Weed Control (%) - 19 DAA Obs: 65%
[2]; [20]
  Visual Weed Control (%) - 19 DAA Obs: 30%
[5]; [19]
  Visual Weed Control (%) - 19 DAA Obs: 55%
[6]; [21]
  Visual Weed Control (%) - 21 DAA Obs: 70%
[6]; [22]
  Visual Weed Control (%) - 21 DAA Obs: 95%
[6]; [23]
  Visual Weed Control (%) - 21 DAA Obs: 90%
[8]; [19]
  Visual Weed Control (%) - 21 DAA Obs: 0%
[8]; [21]
  Visual Weed Control (%) - 19 DAA Obs: 0%
[8]; Compound A Benzyl Ester 8.75 gae/ha, Clomazone 0 gai/ha
  Visual Weed Control (%) - 21 DAA Obs: 0%
[8]; [22]
  Visual Weed Control (%) - 19 DAA Obs: 0%
[8]; [20]
  Visual Weed Control (%) - 21 DAA Obs: 0%
[8]; [23]
  Visual Weed Control (%) - 19 DAA Obs: 0%
